US20220142948A1, “COMPOSITIONS AND METHODS FOR MODULATING METABOLIC REGULATORS OF T CELL PATHOGENICITY” (The Broad Institute, Inc., priority 2019, published 2022)
“Also recorded” adds a separate entry of the source.

Tests used:
[1] = test system: Th17 cells (Th17n, Th17p); assay: Protein, phospho-protein and histone mark analysis by flow cytometry; format: cell-based, mouse
Protocol: Proliferation was assessed by staining with CellTrace Violet (Thermo Fisher Scientific) per manufacturer's instructions. Apoptosis was assessed using Annexin V staining kit (BioLegend). Phosphorylation of proteins to determine cell signaling was performed with BD Phosflow buffer system (BD bioscience) as per manufacturer's instructions.
T cell differentiation culture and flow cytometry. Naïve CD4+CD44-CD62L+CD25− T cells were sorted using BD FACSAria sorter and activated with plate-bound anti-CD3 (1 μg/ml) and antiCD28 antibodies (1 μg/ml) in the presence of cytokines at a concentration of 5×10^5 cells/ml. For T cell differentiations the following combinations of cytokines were used: pathogenic Th17: 25 ng/ml rmIL-6, 20 ng/ml rmIL-1b (both Miltenyi Biotec) and 20 ng/ml rmIL-23 (R&D systems); non-pathogenic Th17: 25 ng/ml rmIL-6 and 2 ng/ml of rhTGFb1 (Miltenyi Biotec); iTreg: 2 ng/ml of rhTGFb1; Th1: 20 ng/ml rmIL-12 (R&D systems); Th2: 20 ng/ml rmIL-4 (Miltenyi Biotec). Intracellular cytokine staining was performed after incubation for 4-6h with Cell Stimulation cocktail plus Golgi transport inhibitors (Thermo Fisher Scientific) using the BD Cytofix/Cytoperm buffer set (BD Biosciences) per manufacturer's instructions. Transcription factor staining was performed using the Foxp3/Transcription Factor Staining Buffer Set (eBioscience). Proliferation was assessed by staining with CellTrace Violet (Thermo Fisher Scientific) per manufacturer's instructions. Apoptosis was assessed using Annexin V staining kit (BioLegend). Phosphorylation of proteins to determine cell signaling was performed with BD Phosflow buffer system (BD bioscience) as per manufacturer's instructions.

[2] = test system: experimental autoimmune encephalomyelitis (EAE); assay: Active EAE (MOG35-55/CFA immunization) with DFMO in drinking water; format: in vivo, mouse
Protocol: Experimental Autoimmune Encephalomyelitis (EAE). […] Equivalent of 40 μg MOG peptide was injected per mouse subcutaneously followed by pertussis toxin injection intravenously on day 0 and day 2 of immunization. Mice were treated with 0.5% DFMO in drinking water for 10 days as indicated. DFMO was replenished every third day.
Experimental Autoimmune Encephalomyelitis (EAE). […] Equivalent of 40 μg MOG peptide was injected per mouse subcutaneously followed by pertussis toxin injection intravenously on day 0 and day 2 of immunization. Mice were monitored and assigned grades for clinical signs of EAE using the following scoring system: 0, healthy; 1, limp tail; 2, impaired righting reflex or ataxic gait; 3, hind limb paralysis; 4, total limb paralysis; 5, moribund or death. Mice with a score of >4 were euthanized. If mice died during the course of the experiment, their clinical score of 5 was included in the analysis for the remainder of the experiment.

[3] = test system: Th17n, Th17p and iTreg cells; assay: Population ATAC-seq chromatin accessibility; format: cell-based, mouse
Text: ATAC-seq. For population ATAC-seq, in vitro differentiated T-cells were sorted for live cells and froze down in Bambanker freezing media (Thermo Fisher Scientific).
Alignment of ATAC-Seq and Peak Calling. All ATAC-Seq reads were trimmed using Trimmomatic to remove primer and low-quality bases. Reads <36 bp were dropped. Reads were then passed to FastQC [www.bioinformatics.babraham.ac.uk/projects/fastqc/] to check the quality of the trimmed reads. The paired-end reads were then aligned to the mm10 reference genome using bowtie2 [29], allowing maximum insert sizes of 2000 bp, with the “—no-mixed” and “—no-discordant” parameters added. Reads with a mapping quality (MAPA) below 30 were removed. Duplicates were removed with PicardTools, and the reads mapping to the blacklist regions and mitochondrial DNA were also removed. Reads mapping to the positive strand were moved +4 bp, and reads mapping to the negative strand were moved −5 bp following the procedure outlined in [30] to account for the binding of the Tn5 transposase.
(§1) Peaks were called using macs2 on the aligned fragments with a qvalue cutoff of 0.001 and overlapping peaks among replicates were merged.
Tests of Differential Accessibility in ChARs. Differential accessibility was assessed using DESeq2 [32] on with a matrix of peaks by samples replacing the genes by samples matrix. Counts of Tn5 cuts were used instead of gene expression values.
ATAC-seq. For population ATAC-seq, in vitro differentiated T-cells were sorted for live cells and stored in Bambanker freezing media (Thermo Fisher Scientific) at −80° C. until further processing. Prior to library preparation, cells were thawed at 37° C. and washed with PBS. For ATAC-seq, cell pellets were lysed and tagmented in 1×TD Buffer, 0.2 ul TDE1 (Illumina), 0.01% digitonin, and 0.3×PBS in 40 ul reaction volume following the protocol described in [49]. Transposition reactions were incubated at 37° C. for 30 min at 300 rpm. The DNA was purified from the reaction using a MinElute PCR purification kit (QIAGEN). The whole resulting product was then PCR-amplified using indexed primers with NEBNext High-Fidelity 2X PCR Master Mix (NEB). First, Applicants performed 5 cycles of pre-amplification. Applicants sampled 10% of the pre-amplification reaction for SYBR Green quantitative PCR to assess the number of additional cycles needed for final amplification. After purifying the final library with the MinElute PCR purification kit (QIAGEN), the library was quantified for sequencing using qPCR and a Qubit dsDNA HS Assay kit (Invitrogen). Libraries were sequenced on an Illumina NextSeq 550 system with paired-end reads of 37 base pairs in length.
Alignment of ATAC-Seq and Peak Calling. All ATAC-Seq reads were trimmed using Trimmomatic to remove primer and low-quality bases. Reads <36 bp were dropped. Reads were then passed to FastQC [www.bioinformatics.babraham.ac.uk/projects/fastqc/] to check the quality of the trimmed reads. The paired-end reads were then aligned to the mm10 reference genome using bowtie2 [51], allowing maximum insert sizes of 2000 bp, with the “—no-mixed” and “—no-discordant” parameters added. Reads with a mapping quality (MAPA) below 30 were removed. Duplicates were removed with PicardTools, and the reads mapping to the blacklist regions and mitochondrial DNA were also removed. Reads mapping to the positive strand were moved +4 bp, and reads mapping to the negative strand were moved −5 bp following the procedure outlined in [52] to account for the binding of the Tn5 transposase.
as §1
Tests of Differential Accessibility. Differential accessibility was assessed using DESeq2 [54] on with a matrix of peaks (merging all samples) by samples. […]

## NCCC[C@](N)(C(=O)O)C(F)F [DFMO, 2-(difluoromethyl)ornithine]
[1]
  total Stat3 protein levels: not total Stat3 protein levels
[1]; Th17 cells
  H3K4 trimethylation: promoted
  H3K9 trimethylation: promoted
  H3K27 trimethylation: promoted
  pStat3: does not seem to alter; also recorded: did not alter; also recorded: inconsistently regulated
[1]; Th17p cells
  pStat3: decreased
[1]; both types of Th17 cells
  pFoxo1(S256): promoted
[2]; 0.5% DFMO in drinking water for 10 days
  EAE clinical score, onset and severity: effective in reducing EAE; also recorded: decreases the EAE score; also recorded: delays EAE onset; also recorded: significantly delayed the onset and severity of EAE; also recorded: significant impact in curtailing EAE
[2]; lymphocytes isolated from CNS
  Foxp3+CD4+ T cells (Tregs): promotes Tregs; also recorded: increased frequency
  frequency of cytokine producing cells: no difference
[3]
  ATACseq peaks in the Il23r region: no significant difference
  accessibility in Th17 specific regions: specifically reduced accessibility; also recorded: reduces accessibility; also recorded: more restricted landscape; also recorded: less accessibility
  accessibility in Treg specific regions: more accessible landscape; also recorded: more accessibility
  peaks near regulatory elements for Foxp3 such as CNS2: no differentially expressed peaks
[3]; Rorgt binding site
  peaks in the promoter and intergenic regions of Il17a-Il17f: significantly restricted peaks
[3]; Th17n cells
  accessibility near potential binding sites of JMJD3 and POU-domain TFs: increased accessibility
[3]; Th cells analyzed
  accessible peaks overall: alters chromatin accessibility; also recorded: significant changes in accessible peaks; also recorded: considerable changes in accessible peaks
[3]; both Th17n and Th17p cells
  motif enrichment in iTreg-specific accessible regions: significant enrichment of BATF and cMAF motifs
